Laboratory results taken from publication PMC3388080 (PLoS ONE, 2012).

Assays:
[1] = Plasma and brain exposure at the end of the LMA experiment; format: in vivo, rat; conditions: 35 min
Method: Locomotor activity (LMA) was evaluated at F. Hoffmann-La Roche as described previously. Male Wistar rats were placed for 2 weeks in a 12 h light/12 h dark cycle with light onset at 22∶00 (ZT0). […] Spontaneous LMA was recorded for a period of 30 min. At the end of the experiment, the brain and plasma were collected for determination of the drug exposure and brain/plasma concentration ratio.
The plasma and brain exposure of SB-334867 were measured at the end of the LMA experiment.

[2] = in vivo; conditions: male, Sprague-Dawley, rat
Method: This study was performed at F. Hoffmann-La Roche. Sixty-five male Sprague-Dawley rats, housed 5 per cage (light onset: 12∶00), were injected intraperitoneally (ip) with either vehicle (1.25% hydroxypropyl methylcellulose (HPMC), 0.1% docusate sodium) or almorexant (30 mg/kg in 1.25% HPMC, 0.1% docusate sodium) at the mid-dark phase (ZT18; i.e., 6 h after lights-off), and returned to their home cage. Groups (n = 5 per group) of vehicle- or almorexant-treated animals were then sacrificed by decapitation 0.5, 2, 4, 8 or 12 h after the injection. An extra group of non-injected rats (n = 5) was also sampled at ZT18. Plasma was collected and stored at −80°C until assayed. Brains were rapidly dissected, frozen on dry ice, and stored at −80°C. Series of coronal brain sections (14 µm) were cut in a cryostat through the posterior hypothalamus (tuberomammillary nucleus level: 3.8 to 4.2 mm posterior to bregma) and the brain stem (dorsal raphe nucleus level: 7.3 to 8 mm posterior to bregma; locus coeruleus level: −9.3 to −10 mm posterior to bregma), thaw-mounted (6 sections per slide) and stored at −20°C. After sectioning, the remaining pieces of brain were kept at −80°C for later determination of almorexant brain concentration. The brain and plasma concentrations of almorexant were determined by quantitative liquid chromatography/mass spectrometry/mass spectrometry (LC/MS/MS).

Row | SMILES | brain level ([1]; 3 mg/kg ip) | plasma level ([1]; 3 mg/kg ip) | brain level ([1]; 10 mg/kg ip) | plasma level ([1]; 10 mg/kg ip) | brain level ([1]; 30 mg/kg ip) | plasma level ([1]; 30 mg/kg ip) | time at which half-maximal concentrations were achieved [2] | Kp at 0.5 h ([2]; ip, 30 mg/kg)
1 | Cc1nc2ccc(NC(=O)Nc3ccnc4cccnc34)cc2o1.Cl [SB-334867, 1-(2-methylbenzoxazol-6-yl)-3-[1], [5]naphthyridin-4-yl-urea hydrochloride] | 48 ng/mL | 220 ng/mL | 171 ng/mL | 718 ng/mL | 142 ng/mL | 738 ng/mL |  | 
2 | CNC(=O)[C@@H](c1ccccc1)N1CCc2cc(OC)c(OC)cc2[C@@H]1CCc1ccc(C(F)(F)F)cc1 [almorexant, (2R)-2-[(1S)-6,7-Dimethoxy-1-[2-(4-trifluoromethyl-phenyl)-ethyl]-3,4-dihydro-1H-isoquinolin-2-yl]-N-methyl-2-phenyl-acetamide] |  |  |  |  |  |  | 4 and 6 | 0.28
